Measurements: patent US4556715A, “Nicotinic acid derivatives” (Kyorin Pharmaceutical Co., Ltd., priority 1980, dated 1985)
Read-outs that look alike come from different tables or passages of the source.

Test system: serum and liver lipid levels in rats
Assay: Serum and liver lipid levels and relative liver weight in rats (100 mg/kg, 10 days)
Format: in vivo, Male rats of the Wistar strain
Conditions: for response vs control in vivo at 100 mg/kg: Rattus norvegicus, po; for response vs control in vivo at 100 mg/kg / Relative liver weight, relative to Control (100): in parentheses, Control = (100); for Liver lipid levels Ch / Liver lipid levels PL / Liver lipid levels TG / Relative liver weight / Serum lipid levels Ch / Serum lipid levels PL / Serum lipid levels TG: 100 mg/kg p.o. 10 days, Mean ± S.E. (n = 9)
Protocol: (2) Male rats of the Wistar strain weighing 160-180 g were fed a stock deit (CE-2, Japan CLEA, Tokyo) and water ad libitum. The present compounds and KCD-232 were suspended, respectively, in a 0.5% of CMC solution and give orally to rats once a day at a dose of 100 mg/kg b.w. for 10 days.
Control rats were received the 0.5% CMC solution alone. The diet was withdrawn immediately after the last administration of compounds. Animals were sacrificed by decapitation 4 hr after the last administration and blood was collected, clotted and centrifuged to obtain serum. The liver was excised quickly and weighed. Total lipids were extracted from the serum and liver, and the levels of Ch, TG and PL were determined colorimetrically.

[1] = 240 h, Table 2, read-out: Liver lipid levels PL, relative to Control (100)
[2] = 240 h, Table 3, read-out: Liver lipid levels PL, relative to Control (100)
[3] = Table 2, read-out: Liver lipid levels Ch, relative to Control (100)
[4] = Table 2, read-out: Liver lipid levels TG, relative to Control (100)
[5] = Table 2, read-out: Serum lipid levels Ch, relative to Control (100)
[6] = Table 2, read-out: Serum lipid levels PL, relative to Control (100)
[7] = Table 2, read-out: Serum lipid levels TG, relative to Control (100)
[8] = Table 3, read-out: Liver lipid levels Ch, relative to Control (100)
[9] = Table 3, read-out: Liver lipid levels TG, relative to Control (100)
[10] = Table 3, read-out: Serum lipid levels Ch, relative to Control (100)
[11] = Table 3, read-out: Serum lipid levels PL, relative to Control (100)
[12] = Table 3, read-out: Serum lipid levels TG, relative to Control (100)

SMILES | response vs control in vivo at 100 mg/kg [1] [%] | response vs control in vivo at 100 mg/kg [2] [%] | response vs control in vivo at 100 mg/kg [3] [%] | response vs control in vivo at 100 mg/kg [4] [%] | response vs control in vivo at 100 mg/kg [5] [%] | response vs control in vivo at 100 mg/kg [6] [%] | response vs control in vivo at 100 mg/kg [7] [%] | response vs control in vivo at 100 mg/kg [8] [%] | response vs control in vivo at 100 mg/kg [9] [%] | response vs control in vivo at 100 mg/kg [10] [%] | response vs control in vivo at 100 mg/kg [11] [%] | response vs control in vivo at 100 mg/kg [12] [%] | Liver lipid levels Ch (Table 2) [mg/g liver] | Liver lipid levels PL (Table 2) [mg/g liver] | Liver lipid levels TG (Table 2) [mg/g liver] | Relative liver weight (Table 2) [g/100 g b.w.] | Serum lipid levels Ch (Table 2) [mg/dL] | Serum lipid levels PL (Table 2) [mg/dL] | Serum lipid levels TG (Table 2) [mg/dL] | Relative liver weight, relative to Control (100) (Table 2) | further results
O=C(OCCc1ccc(OCc2ccc(Cl)cc2)cc1)c1cccnc1 [n1=1, n2=2, 4-(4-Chlorobenzyloxy)phenethyl nicotinate] | 105 | 104 | 78.3 | 82.9 | 78.1 | 76.8 | 44.2 | 106 | 79 | 70.9 | 64.7 | 27.3 | 2.38 ± 0.10 | 39.9 ± 0.8 | 5.24 ± 0.36 | 4.10 ± 0.06 | 67.7 ± 3.3 | 114 ± 4.7 | 54.7 ± 6.5 | 106 | Liver lipid levels Ch (Table 3): 2.46 ± 0.14 mg/g liver; Liver lipid levels PL (Table 3): 37.5 ± 0.4 mg/g liver; Relative liver weight (Table 3): 3.80 ± 0.07 g/100 g b.w.; Serum lipid levels Ch (Table 3): 69.2 ± 3.9 mg/dL; Serum lipid levels PL (Table 3): 101 ± 4.5 mg/dL; Serum lipid levels TG (Table 3): 34.2 ± 2.9 mg/dL; Relative liver weight, relative to Control (100) (Table 3): 100
O=C(OCCCCc1ccc(OCc2ccc(Cl)cc2)cc1)c1cccnc1 [n1=1, n2=4, 4-[4-Chlorobenzyloxy)phenyl]butyl nicotinate] | 101 | 101 | 70.1 | 106 | 75.4 | 77 | 39.5 | 108 | 103 | 76 | 68.2 | 29.9 | 2.13 ± 0.04 | 38.4 ± 0.7 | 6.73 ± 0.51 | 4.44 ± 0.11 | 65.4 ± 1.4 | 114 ± 2.5 | 48.9 ± 5.1 | 115 | Liver lipid levels Ch (Table 3): 2.51 ± 0.11 mg/g liver; Liver lipid levels PL (Table 3): 36.7 ± 0.9 mg/g liver; Liver lipid levels TG (Table 3): 7.42 ± 0.88 mg/g liver; Relative liver weight (Table 3): 3.91 ± 0.10 g/100 g b.w.; Serum lipid levels Ch (Table 3): 74.2 ± 2.5 mg/dL; Serum lipid levels PL (Table 3): 106 ± 3.6 mg/dL; Serum lipid levels TG (Table 3): 37.6 ± 3 mg/dL; Relative liver weight, relative to Control (100) (Table 3): 103
O=C(OCCc1ccc(OCCc2ccc(Cl)cc2)cc1)c1cccnc1 [n1=2, n2=2, 4-(4-Chorophenethyloxy)phenetyl nicotinate] | 107 |  | 79.3 | 84.2 | 78.8 | 78.2 | 39.1 |  |  |  |  |  | 2.41 ± 0.10 | 40.8 ± 0.3 | 5.32 ± 0.45 | 3.97 ± 0.05 | 68.3 ± 3.7 | 116 ± 5 | 48.4 ± 4.8 | 103 | 
O=C(OCCc1ccc(OCCCCc2ccc(Cl)cc2)cc1)c1cccnc1 [n1=4, n2=2, 4-[4-(4-Chlorophenyl)butoxy]phenethyl nicotinate] |  | 109 |  |  |  |  |  | 98.3 | 79.7 | 74 | 67.1 | 24.9 |  |  |  |  |  |  |  |  | Liver lipid levels Ch (Table 3): 2.28 ± 0.09 mg/g liver; Liver lipid levels PL (Table 3): 39.6 ± 0.9 mg/g liver; Liver lipid levels TG (Table 3): 5.72 ± 0.40 mg/g liver; Relative liver weight (Table 3): 4.03 ± 0.07 g/100 g b.w.; Serum lipid levels Ch (Table 3): 72.2 ± 1.3 mg/dL; Serum lipid levels PL (Table 3): 104 ± 3.7 mg/dL; Serum lipid levels TG (Table 3): 31.3 ± 3.6 mg/dL; Relative liver weight, relative to Control (100) (Table 3): 106
O=C(OCCCCc1ccc(OCCCCc2ccc(Cl)cc2)cc1)c1cccnc1 [n1=4, n2=4, 4-{4-[4-(4-Chlorophenyl)butoxy]phenyl}butyl nicotinate] | 107 |  | 79.3 | 112 | 70.8 | 69.2 | 31.5 |  |  |  |  |  | 2.41 ± 0.08 | 40.9 ± 0.4 | 7.11 ± 0.53 | 3.90 ± 0.06 | 61.4 ± 3.2 | 103 ± 4.4 | 39 ± 3.2 | 101 | 
O=C(OCCCCCCc1ccc(OCCCCCCc2ccc(Cl)cc2)cc1)c1cccnc1 [n1=6, n2=6, 6-{4-[6'-(4-Chlorophenyl)hexyloxy]phenyl}hexyl nicotinate] |  | 107 |  |  |  |  |  | 103 | 64.3 | 79.3 | 64.9 | 23.7 |  |  |  |  |  |  |  |  | Liver lipid levels Ch (Table 3): 2.38 ± 0.08 mg/g liver; Liver lipid levels PL (Table 3): 38.7 ± 0.8 mg/g liver; Liver lipid levels TG (Table 3): 4.62 ± 0.15 mg/g liver; Relative liver weight (Table 3): 3.84 ± 0.10 g/100 g b.w.; Serum lipid levels Ch (Table 3): 77.4 ± 3.8 mg/dL; Serum lipid levels PL (Table 3): 101 ± 3.7 mg/dL; Serum lipid levels TG (Table 3): 29.8 ± 1.5 mg/dL; Relative liver weight, relative to Control (100) (Table 3): 101
